Measurements from patent US12509420B2, “Compound as a UBR box domain ligand” (AUTOTAC INC., priority 2020, dated 2025).
Peptide text beside a SMILES is read from it. * marks the point of attachment. Cbz = O=C(OCc1ccccc1)*

What was measured:
UBR1 [1] = experiment: Inhibition of R-nsP4 degradation by in vitro transcription/translation method; type: biochemical; details: compound 1 uM, 30° C. for 40 minutes, DHFR-Ub-R-nsP4 plasmid, compared to the control
Procedure: A TnT® Quick Coupled Transcription/Translation System kit was used to confirm the R-nsP4 expression of the compounds. After a pre-mix was made using Transcend Biotin-Lysyl-tRNA, methionine, bestatin, a TnTquick Master mix and a DHFR-Ub-R-nsP4 plasmid, the pre-mix was mixed with a compound (1 uM). After each sample was reacted at 30° C. for 40 minutes, a 5×SDS loading dye was added thereto. After the resulting mixture was reacted at 95° C. for 2 minutes, 5 uL was taken and aliquoted into each well of an acrylamide gel, and then an immunoblotting method was performed, and the experimental results are illustrated in [FIG. 2]. For an in vitro transcription/translation method, a representative experiment was schematized from three or more independent experiments.

UBR1 [2] = molecular target: T1, UBR1 (Rattus norvegicus, UniProt A0A8I5ZK69); experiment: Inhibition of muscle cell actin degradation by immunoblotting (L6 cells); type: cell-based; details: compound 5 uM alone, 24 hours, immunoblot
T1 construct: endogenous in cells; host or cells: L6 rat muscle-derived cells
Procedure: To evaluate the actin degradation of compounds in muscle cells, a L6 cell line, which is a rat muscle-derived cell, was cultured using a DMEM medium containing 10% FBS and 1% streptomycin/penicillin in an incubator in which 5% carbon dioxide was maintained. In order to measure the UBR1 binding strength according to the treatment with a representative compound selected from the present compounds, cells were aliquoted into a 12-well plate. The cells were additionally cultured for 24 hours so as to be completely attached to the surface of the plate. […] To extract proteins from the collected cells, 50 uL of a lysis buffer (20 mM Tris, pH 7.4, 150 mM NaCl, 1% Triton-X-100, 2 mM NaF, 2 mM EDTA, 2 mM b-glycerophosphate, 5 mM sodium orthovanadate, 1 mM PMSF, leupeptin, aprotenin) was injected into each sample, and the cells were lysed. A sample buffer was added to each sample based on the measured total protein concentration, and the mixture was reacted at 100° C. for 5 minutes. After 5 uL was taken from the completely reacted sample and aliquoted into each well of an acrylamide gel, an immunoblotting method was performed, and the experimental results were illustrated in [FIG. 3]. For the immunoblotting method, a representative experiment was schematized from three or more independent experiments.

L6 cell line = experiment: Immunoblotting of muscle actin levels in L6 cells after MG132 treatment; type: cell-based, rat; details: MG132 10 uM alone, 24 hours, immunoblot, compared to a control
Procedure: A L6 cell line, which is a rat muscle-derived cell, was cultured using a DMEM medium containing 10% FBS and 1% streptomycin/penicillin in an incubator in which 5% carbon dioxide was maintained, and cells were aliquoted into a 12-well plate after the culture. The cells were additionally cultured for 24 hours so as to be completely attached to the surface of the plate. To confirm whether MG132 increased UBR1 binding, cells were collected after treatment with MG132 (10 uM) alone for 24 hours. To extract proteins from the collected cells, 50 uL of a lysis buffer (20 mM Tris, pH 7.4, 150 mM NaCl, 1% Triton-X-100, 2 mM NaF, 2 mM EDTA, 2 mM b-glycerophosphate, 5 mM sodium orthovanadate, 1 mM PMSF, leupeptin, aprotenin) was injected into each sample, and the cells were lysed. A sample buffer was added to each sample based on the measured total protein concentration, and the mixture was reacted at 100° C. for 5 minutes. After 5 uL was taken from the completely reacted sample and aliquoted into each well of an acrylamide gel, an immunoblotting method was performed, and the experimental results are illustrated in [FIG. 1].
For the immunoblotting method, a representative experiment was schematized from three or more independent experiments.
Referring to FIG. 1, it was confirmed that the levels of ACTA1, ACTC1, and ACTG2 were increased by MG132 compared to a control. Further, it was confirmed that the levels of ACTA1 and ACTG2 were increased when a UBR protein was knocked down. That is, it could be confirmed that muscle actin is an Arg/N-degron pathway substrate.

T1 sequence (A0A8I5ZK69 1-1749): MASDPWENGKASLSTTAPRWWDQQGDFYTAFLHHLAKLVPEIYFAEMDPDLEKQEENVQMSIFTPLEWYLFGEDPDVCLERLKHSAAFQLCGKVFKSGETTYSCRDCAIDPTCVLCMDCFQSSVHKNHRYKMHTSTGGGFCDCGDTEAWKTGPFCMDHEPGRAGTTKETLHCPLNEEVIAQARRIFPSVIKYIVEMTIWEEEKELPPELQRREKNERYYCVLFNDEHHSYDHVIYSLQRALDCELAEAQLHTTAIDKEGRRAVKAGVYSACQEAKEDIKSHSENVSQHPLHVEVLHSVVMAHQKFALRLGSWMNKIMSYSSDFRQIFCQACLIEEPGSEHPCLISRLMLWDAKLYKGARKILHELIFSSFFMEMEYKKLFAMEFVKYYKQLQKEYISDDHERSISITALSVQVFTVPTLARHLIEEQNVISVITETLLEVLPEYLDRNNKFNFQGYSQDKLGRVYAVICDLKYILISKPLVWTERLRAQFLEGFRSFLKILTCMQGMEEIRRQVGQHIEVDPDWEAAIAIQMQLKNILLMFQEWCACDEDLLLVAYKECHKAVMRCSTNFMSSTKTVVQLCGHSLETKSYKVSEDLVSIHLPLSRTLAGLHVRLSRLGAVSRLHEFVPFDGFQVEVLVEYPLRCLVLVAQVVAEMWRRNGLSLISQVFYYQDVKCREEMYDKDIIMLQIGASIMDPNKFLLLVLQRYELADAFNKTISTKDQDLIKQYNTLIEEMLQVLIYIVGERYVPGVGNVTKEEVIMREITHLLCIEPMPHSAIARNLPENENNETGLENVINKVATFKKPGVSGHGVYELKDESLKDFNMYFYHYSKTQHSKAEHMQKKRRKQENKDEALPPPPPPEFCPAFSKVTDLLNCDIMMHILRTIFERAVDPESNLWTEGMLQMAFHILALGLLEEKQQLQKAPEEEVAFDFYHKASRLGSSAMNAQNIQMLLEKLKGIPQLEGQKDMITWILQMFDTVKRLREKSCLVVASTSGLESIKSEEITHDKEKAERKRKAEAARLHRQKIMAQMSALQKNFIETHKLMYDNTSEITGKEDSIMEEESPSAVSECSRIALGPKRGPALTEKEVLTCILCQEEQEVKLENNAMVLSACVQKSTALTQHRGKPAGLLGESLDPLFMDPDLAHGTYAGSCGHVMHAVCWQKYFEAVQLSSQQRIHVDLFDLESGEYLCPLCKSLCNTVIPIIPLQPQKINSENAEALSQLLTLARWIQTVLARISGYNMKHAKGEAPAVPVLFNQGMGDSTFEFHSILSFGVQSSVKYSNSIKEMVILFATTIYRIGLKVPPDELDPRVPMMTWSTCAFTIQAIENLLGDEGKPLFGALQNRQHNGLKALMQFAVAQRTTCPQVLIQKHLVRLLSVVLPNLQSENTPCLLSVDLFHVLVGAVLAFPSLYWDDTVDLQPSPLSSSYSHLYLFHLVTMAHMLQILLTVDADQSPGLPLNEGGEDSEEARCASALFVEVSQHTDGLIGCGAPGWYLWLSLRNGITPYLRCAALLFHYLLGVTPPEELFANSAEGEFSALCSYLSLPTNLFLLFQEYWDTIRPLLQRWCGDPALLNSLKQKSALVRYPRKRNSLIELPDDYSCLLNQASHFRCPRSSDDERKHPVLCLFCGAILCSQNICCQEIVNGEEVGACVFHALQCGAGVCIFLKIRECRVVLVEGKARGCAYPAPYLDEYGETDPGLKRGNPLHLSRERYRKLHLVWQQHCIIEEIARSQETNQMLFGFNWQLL

Compound | level of R-nsP4 (UBR1 [1]) | level of ACTA1 (UBR1 [2]) | level of ACTA1 (L6 cell line) | level of ACTC1 (L6 cell line) | level of ACTG2 (L6 cell line)
COCCCCC(=O)Nc1cc(C(N)=O)ccc1Cl [Compound 2, 4-chloro-3-(5-methoxypentanamido)benzamide] | increased | further increased |  |  | 
COCCCCC(=O)Nc1cc(C(C)=O)ccc1Cl [Compound 1, N-(5-acetyl-2-chlorophenyl)-5-methoxypentanamide] | increased | further increased |  |  | 
CC(C)C[C@@H](C=O)NC(=O)[C@H](CC(C)C)NC(=O)[C@H](CC(C)C)NC(=O)OCc1ccccc1 [MG132] (Cbz-Leu-Leu-Leu-aldehyde) |  |  | increased | increased | increased
